PubChem BioAssay (NCI)
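48-hour exposure; five concentrations; linearly interpolated endpoints. TGI: concentration producing complete growth inhibition.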

Legend:
Test in all cases: DTP human tumour cell line panel, 48 h
[1] = test system: TK-10 renal
[2] = test system: ACHN renal
[3] = test system: SW-620 colon
[4] = test system: HCT-15 colon
[5] = test system: HT29 colon
[6] = test system: K-562 leukemia
[7] = test system: UACC-62 melanoma
[8] = test system: BT-549 breast
[9] = test system: NCI-H23 lung
[10] = test system: UO-31 renal
[11] = test system: CCRF-CEM leukemia
[12] = test system: UACC-257 melanoma
[13] = test system: LOX IMVI melanoma
[14] = test system: U251 CNS
[15] = test system: SNB-19 CNS
[16] = test system: MCF7 breast
[17] = test system: MDA-MB-435
[18] = test system: SF-268 CNS
[19] = test system: KM12 colon
[20] = test system: OVCAR-8 ovarian
[21] = test system: SR leukemia
[22] = test system: RXF 393 renal
[23] = test system: SK-MEL-2 melanoma
[24] = test system: SNB-75 CNS
[25] = test system: HS 578T breast
[26] = test system: DU-145 prostate
[27] = test system: SK-MEL-5 melanoma
[28] = test system: IGROV1 ovarian
[29] = test system: HOP-92 NSCLC
[30] = test system: OVCAR-5 ovarian
[31] = test system: RPMI-8226 leukemia
[32] = test system: MALME-3M melanoma
[33] = test system: COLO 205 colon
[34] = test system: M14 melanoma
[35] = test system: A549 NSCLC
[36] = test system: NCI-H460 lung
[37] = test system: SF-295 CNS
[38] = test system: MDA-N
[39] = test system: 786-0 renal
[40] = test system: SN12C renal
[41] = test system: OVCAR-4 ovarian
[42] = test system: OVCAR-3 ovarian
[43] = test system: T-47D breast
[44] = test system: NCI-H522 lung
[45] = test system: MDA-MB-231 breast
[46] = test system: NCI-H226 lung
[47] = test system: HCC-2998 colon
[48] = test system: SK-MEL-28 melanoma
[49] = test system: A498 renal
[50] = test system: MOLT-4 leukemia
[51] = test system: HCT-116 colon
[52] = test system: CAKI-1 renal
[53] = test system: HL-60(TB) leukemia
[54] = test system: EKVX NSCLC
[55] = test system: HOP-62 NSCLC
[56] = test system: SF-539 CNS
[57] = test system: PC-3 prostate
[58] = test system: SK-OV-3 ovarian

In the case of `CN1CCN(C(=S)N(C(=O)c2ccco2)C2CCCCC2)CC1`, the TGI [1] was > 100 µM, the TGI [2] was > 100 µM and the TGI [3] was > 100 µM. The TGI [4] was > 100 µM, the TGI [5] was > 100 µM and the TGI [6] was > 100 µM. The TGI [7] was > 100 µM, the TGI [8] was > 100 µM and the TGI [9] was > 100 µM. The TGI [10] was > 100 µM, the TGI [11] was > 100 µM and the TGI [12] was > 100 µM. For the same molecule, the TGI [13] was > 100 µM, the TGI [14] was > 100 µM and the TGI [15] was > 100 µM. For the same molecule, the TGI [16] was > 100 µM, the TGI [17] was > 100 µM and the TGI [18] was > 100 µM. For the same molecule, the TGI [19] was > 100 µM, the TGI [20] was > 100 µM and the TGI [21] was > 100 µM. The TGI [22] was > 100 µM, the TGI [23] was > 100 µM and the TGI [24] was > 100 µM. The TGI [25] was > 100 µM, the TGI [26] was > 100 µM and the TGI [27] was > 100 µM. The TGI [28] was > 100 µM, the TGI [29] was > 100 µM and the TGI [30] was > 100 µM. For the same molecule, the TGI [31] was > 100 µM, the TGI [32] was > 100 µM and the TGI [33] was > 100 µM. The TGI [34] was > 100 µM, the TGI [35] was > 100 µM and the TGI [36] was > 100 µM. For the same molecule, the TGI [37] was > 100 µM, the TGI [38] was > 100 µM and the TGI [39] was > 100 µM. For the same molecule, the TGI [40] was > 100 µM, the TGI [41] was > 100 µM and the TGI [42] was > 100 µM. For the same molecule, the TGI [43] was > 100 µM, the TGI [44] was > 100 µM and the TGI [45] was > 100 µM. The TGI [46] was > 100 µM, the TGI [47] was > 100 µM and the TGI [48] was > 100 µM.
For `COC(=O)c1cc(C)ccc1/C=C1\Cc2cccc(C)c2C1=O`, the TGI [1] was > 100 µM, the TGI [2] was > 100 µM and the TGI [3] was > 100 µM. For the same molecule, the TGI [4] was > 100 µM, the TGI [5] was > 100 µM and the TGI [6] was > 100 µM. The TGI [49] was > 100 µM, the TGI [8] was > 100 µM and the TGI [9] was > 100 µM. The TGI [50] was > 100 µM, the TGI [10] was > 100 µM and the TGI [11] was > 100 µM. The TGI [12] was > 100 µM, the TGI [13] was 66.2 µM and the TGI [14] was > 100 µM. The TGI [51] was > 100 µM, the TGI [15] was > 100 µM and the TGI [16] was > 100 µM. The TGI [18] was > 100 µM, the TGI [19] was > 100 µM and the TGI [20] was 81.4 µM. The TGI [21] was > 100 µM, the TGI [22] was > 100 µM and the TGI [52] was > 100 µM. For the same molecule, the TGI [24] was > 100 µM, the TGI [25] was > 100 µM and the TGI [26] was > 100 µM. For the same molecule, the TGI [27] was 25.9 µM, the TGI [28] was > 100 µM and the TGI [29] was > 100 µM. For the same molecule, the TGI [53] was > 100 µM, the TGI [30] was > 100 µM and the TGI [31] was > 100 µM. For the same molecule, the TGI [32] was 96.9 µM, the TGI [34] was > 100 µM and the TGI [54] was > 100 µM. For the same molecule, the TGI [35] was > 100 µM, the TGI [36] was > 100 µM and the TGI [37] was > 100 µM. The TGI [38] was 61.8 µM, the TGI [39] was > 100 µM and the TGI [40] was 96 µM. The TGI [41] was > 100 µM, the TGI [42] was > 100 µM and the TGI [43] was > 100 µM. For the same molecule, the TGI [44] was 58.7 µM, the TGI [45] was > 100 µM and the TGI [46] was > 100 µM. The TGI [55] was > 100 µM, the TGI [56] was > 100 µM and the TGI [47] was > 100 µM. The TGI [48] was > 100 µM and the TGI [57] was 62.2 µM.
For `CSc1ncnc2c1cnn2Cc1cn(CCCCO)nn1`, the TGI [1] was > 100 µM, the TGI [2] was > 100 µM and the TGI [3] was > 100 µM. For the same molecule, the TGI [4] was > 100 µM, the TGI [5] was > 100 µM and the TGI [6] was > 100 µM. The TGI [49] was > 100 µM, the TGI [7] was > 100 µM and the TGI [8] was > 100 µM. For the same molecule, the TGI [9] was > 100 µM, the TGI [50] was > 100 µM and the TGI [10] was > 100 µM. For the same molecule, the TGI [11] was > 100 µM, the TGI [12] was > 100 µM and the TGI [13] was > 100 µM. The TGI [14] was > 100 µM, the TGI [51] was > 100 µM and the TGI [15] was > 100 µM. For the same molecule, the TGI [16] was > 100 µM, the TGI [17] was > 100 µM and the TGI [18] was > 100 µM. For the same molecule, the TGI [19] was > 100 µM, the TGI [20] was > 100 µM and the TGI [21] was > 100 µM. For the same molecule, the TGI [22] was > 100 µM, the TGI [23] was > 100 µM and the TGI [52] was > 100 µM. The TGI [58] was > 100 µM, the TGI [24] was > 100 µM and the TGI [25] was > 100 µM. For the same molecule, the TGI [26] was > 100 µM, the TGI [27] was > 100 µM and the TGI [28] was > 100 µM. The TGI [29] was > 100 µM, the TGI [30] was > 100 µM and the TGI [31] was > 100 µM. The TGI [32] was > 100 µM, the TGI [33] was > 100 µM and the TGI [34] was > 100 µM. For the same molecule, the TGI [54] was > 100 µM, the TGI [35] was > 100 µM and the TGI [36] was > 100 µM. The TGI [37] was > 100 µM, the TGI [38] was > 100 µM and the TGI [39] was > 100 µM. For the same molecule, the TGI [40] was > 100 µM, the TGI [41] was > 100 µM and the TGI [42] was > 100 µM. The TGI [43] was > 100 µM, the TGI [44] was > 100 µM and the TGI [45] was > 100 µM. For the same molecule, the TGI [46] was > 100 µM, the TGI [55] was > 100 µM and the TGI [56] was > 100 µM. For the same molecule, the TGI [47] was > 100 µM, the TGI [48] was > 100 µM and the TGI [57] was > 100 µM.
